Measured values as given in publication PMC10761119, “Phosphorylation-state dependent intraneuronal sorting of Aβ differentially impairs autophagy and the endo-lysosomal system” (Autophagy, 2023).

Columns and labels:
[1] = tested on: SH-SY5Y cells; experiment: Immunocytochemistry colocalization of Aβ with LC3 and LAMP2; format: cell-based, human; details: Aβ 1 µM, 24 h, n = 6, N = 3
Procedure: Cells were cultured on glass coverslips and treated similarly as mentioned above. After treatment, cells were subsequently washed and fixed with 4% paraformaldehyde in PBS for 15 min. […] Incubation with primary antibodies (respective dilutions in blocking buffer) was performed overnight at 4°C. Next day, coverslips were washed and incubated with respective secondary antibodies (respective dilutions in blocking buffer) for 1 h at RT. Removal of the secondary antibody solution was followed by washes with PBS (thrice) and distilled water (once) and coverslips were mounted on the slides using ImmuMount (ThermoFisher Scientific - Shandon EprediaTM, 9990412). […] Quantification of the number of autophagic compartments (Figure S6B) was done manually using a 10 μm^2 ROI grids, placed in the cytosolic region of the individual cells using the “rule of L” counting method. […] All images were processed and analyzed using Fiji ImageJ software. […] Distance from the plaque core (Figure 1B) was measured using the concentric circles plugin module. Fluorescence intensity of the green channel (Figure S3A-B), and the number of neurons positive for Aβ signals (Figure S3-D) were quantified using the processing module of Keyence software. […] Intensity of green and red channel for a particular ROI was calculated and ratios of the individual values were computed (Figure 6B and S7A). […]

[2] = tested on: SH-SY5Y cells; experiment: Number and perinuclear/peripheral positioning of LAMP2-positive compartments; format: cell-based, human; details: Aβ 1 µM, 24 h
Procedure: Cells were cultured on glass coverslips and treated similarly as mentioned above. After treatment, cells were subsequently washed and fixed with 4% paraformaldehyde in PBS for 15 min. Cells were then permeabilized with 0.25% Triton X-100 in PBS for 1 min, followed by blocking with 2.5% BSA, 0.125% Triton X-100 in PBS. Incubation with primary antibodies (respective dilutions in blocking buffer) was performed overnight at 4°C. Next day, coverslips were washed and incubated with respective secondary antibodies (respective dilutions in blocking buffer) for 1 h at RT. Removal of the secondary antibody solution was followed by washes with PBS (thrice) and distilled water (once) and coverslips were mounted on the slides using ImmuMount (ThermoFisher Scientific – Shandon Epredia™, 9990412). For surface staining without permeabilization, Triton X-100 was not used in any solution during the staining procedure.
All images were processed and analyzed using Fiji ImageJ software. Mander’s overlap coefficient (Figure 1B–D; Figure 2B–F; Figure 4B–F; Figure 6E; S2B, D; S4B, D; S6D, F) analysis was done using the colocalization processing module of the Fiji ImageJ plugin. Distance from the plaque core (Figure 1B) was measured using the concentric circles plugin module. Fluorescence intensity of the green channel (Figure S3A-B), and the number of neurons positive for Aβ signals (Figure S3-D) were quantified using the processing module of Keyence software. […] Intensity of green and red channel for a particular ROI was calculated and ratios of the individual values were computed (Figure 6B and S7A). For computing the number of mCherry^+GFP^± vesicles or per cell (Figure 6D and S7B), cell outline was drawn manually and number of vesicles per cell (nucleus count – DAPI) was calculated. […] Due to slight variability in transfection efficiency or the number of cells in different experimental set-ups, the readings from each experiment were averaged and normalized to the control cells from that particular set. […]

Substance: amyloid-β phosphorylated at serine residue 8 [p-Ser8Aβ]
- Accumulation in LC3-positive autophagosomal structures [1]: preferential accumulation

Substance: amyloid-β phosphorylated at serine residue 26 [p-Ser26Aβ]
- Number of LAMP2-positive vesicles [2]: significantly increased
- Colocalization with LAMP2 [1]: predominant colocalization

Substance: non-phosphorylated amyloid-β [npAβ, reference compound]
- Number of LAMP2-positive vesicles [2]: significantly increased
- Ratio of perinuclear to peripheral lysosomes ([2]; LAMP2-positive compartments, perinuclear <2 µm from nucleus, control 0.61 ± 0.12, n = 12, N = 3): 0.99 ± 0.16
